Assay results as given in patent publication US20110196000A1, “Use of succinate dehydrogenase (SDH) inhibitors in the treatment of plant species from the family of the true grasses” (Bayer CropScience AG, priority 2010, published 2011).

What was measured:
Type in all cases: in vivo
wheat variety Ritmo = test: Plot trial in Germany: green leaf area by visual scoring; conditions: for green leaf area of the flag leaf / green leaf area of the second-from-top leaf (F-1) / green leaf area of the third-from-top leaf (F-2): sprays at BBCH 39 and 59
How it was run: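 Field plot trial in Germany, wheat variety Ritmo, bixafen products sprayed sequentially at BBCH 39 and 59 at 400 l water/ha, 5 repetitions. Green leaf area duration followed by regular visual scoring of green leaf fraction.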

[1] = system: infection-free wheat plants of the cultivar Passat; test: Glasshouse trial: gas exchange activity of wheat ears; conditions: development stage BBCH 75
Experimental: In a glasshouse trial under controlled conditions, the effect of bixafen was investigated on the physiology, morphology and abiotic stress tolerance of infection-free wheat plants of the cultivar […] plants were grown in 10-litre containers over a period of 4 months. The substrate used was standard earth type ED 73 (Fröndenberg, Germany)+C-Horizont+Sand (4:2:1). The supply of nutrient to the plants took place by feeding with a 0.2% strength Flory 2 liquid fertilizer solution (from Euflor, Munich) once every two weeks. The plants were supplied with water as required. In each component of the trial, 10 repetitions were carried out.

Wheat plants = test: Effect of single and double bixafen treatment on leaf area; conditions: for Area [rel.] of the flag leaf / Area [rel.] of the leaf F-1: untreated = 100
Experimental: Trial procedure: Wheat plants were treated at different development stages with bixafen once or twice (125 g/ha each time), and a measurement was made of the respective size of the flag leaf and of the leaf F-1 at the time BBCH 75. For the destructive measurement of the leaf area, the leaves were removed from the plant. The non-destructive measurement was carried out on the intact leaf of the plant.

[2] = 7 days after second fungicide application
[3] = 14 days after second fungicide application
[4] = 21 days after second fungicide application
[5] = 28 days after second fungicide application
[6] = 35 days after second fungicide application
[7] = 42 days after second fungicide application
[8] = 49 days after second fungicide application
[9] = treated at BBCH 33 (125 g/ha), measured at BBCH 75, destructive
[10] = treated at BBCH 33 (125 g/ha), measured at BBCH 75, non-destructive
[11] = treated at BBCH 33 + 39 (125 g/ha each time), measured at BBCH 75, destructive
[12] = treated at BBCH 33 + 39 (125 g/ha each time), measured at BBCH 75, non-destructive
[13] = treated at BBCH 33 + 59 (125 g/ha each time), measured at BBCH 75, destructive
[14] = treated at BBCH 33 + 59 (125 g/ha each time), measured at BBCH 75, non-destructive
[15] = treated at BBCH 39 (125 g/ha), measured at BBCH 75, destructive
[16] = treated at BBCH 39 (125 g/ha), measured at BBCH 75, non-destructive
[17] = treated at BBCH 39 + 59 (125 g/ha each time), measured at BBCH 75, destructive
[18] = treated at BBCH 39 + 59 (125 g/ha each time), measured at BBCH 75, non-destructive
[19] = treated at BBCH 59 (125 g/ha), measured at BBCH 75, destructive
[20] = treated at BBCH 59 (125 g/ha), measured at BBCH 75, non-destructive

Compound: Cn1cc(C(=O)Nc2ccc(F)cc2-c2ccc(Cl)c(Cl)c2)c(C(F)F)n1 [Bixafen, N-(3′,4′-dichloro-5-fluoro-1,1′-biphenyl-2-yl)-3-(difluoromethyl)-1-methyl-1H-pyrazole-4-carboxamide]
- green leaf area of the flag leaf (wheat variety Ritmo; [2]): 98.9 % leaf area
- green leaf area of the second-from-top leaf (F-1) (wheat variety Ritmo; [2]): 98.4 % leaf area
- green leaf area of the third-from-top leaf (F-2) (wheat variety Ritmo; [2]): 96.4 % leaf area
- green leaf area of the flag leaf (wheat variety Ritmo; [3]): 98.7 % leaf area
- green leaf area of the second-from-top leaf (F-1) (wheat variety Ritmo; [3]): 98.3 % leaf area
- green leaf area of the third-from-top leaf (F-2) (wheat variety Ritmo; [3]): 96.3 % leaf area
- green leaf area of the flag leaf (wheat variety Ritmo; [4]): 98.8 % leaf area
- green leaf area of the second-from-top leaf (F-1) (wheat variety Ritmo; [4]): 98.5 % leaf area
- green leaf area of the third-from-top leaf (F-2) (wheat variety Ritmo; [4]): 94.5 % leaf area
- green leaf area of the flag leaf (wheat variety Ritmo; [5]): 96.7 % leaf area
- green leaf area of the second-from-top leaf (F-1) (wheat variety Ritmo; [5]): 94.8 % leaf area
- green leaf area of the third-from-top leaf (F-2) (wheat variety Ritmo; [5]): 91.8 % leaf area
- green leaf area of the flag leaf (wheat variety Ritmo; [6]): 73.0 % leaf area
- green leaf area of the second-from-top leaf (F-1) (wheat variety Ritmo; [6]): 60.0 % leaf area
- green leaf area of the third-from-top leaf (F-2) (wheat variety Ritmo; [6]): 37.5 % leaf area
- green leaf area of the flag leaf (wheat variety Ritmo; [7]): 26.7 % leaf area
- green leaf area of the second-from-top leaf (F-1) (wheat variety Ritmo; [7]): 9.2 % leaf area
- green leaf area of the third-from-top leaf (F-2) (wheat variety Ritmo; [7]): 3.4 % leaf area
- green leaf area of the second-from-top leaf (F-1) (wheat variety Ritmo; [8]): 0 % leaf area
- effect on the duration of the green leaf area of the wheat plant (wheat variety Ritmo; plot trial, statement in words): pronounced effect
- Photosynthesis (gas exchange activity of wheat ears) [1]: -5.94 CO2 per ear
- Respiration (gas exchange activity of wheat ears) [1]: 6.12 CO2 per ear
- Area of the flag leaf (Wheat plants; [9]): 32.13 cm^2
- Area of the leaf F-1 (Wheat plants; [9]): 32.69 cm^2
- Length of the flag leaf (Wheat plants; [9]): 28.25 cm
- Length of the leaf F-1 (Wheat plants; [9]): 30.58 cm
- Width of the flag leaf (Wheat plants; [9]): 1.47 cm
- Width of the leaf F-1 (Wheat plants; [9]): 1.35 cm
- Area [rel.] of the flag leaf (Wheat plants; [9]): 115 rel.
- Area [rel.] of the leaf F-1 (Wheat plants; [9]): 119 rel.
- Area of the flag leaf (Wheat plants; [10]): 35.23 cm^2
- Length of the flag leaf (Wheat plants; [10]): 25.11 cm
- Width of the flag leaf (Wheat plants; [10]): 1.66 cm
- Area [rel.] of the flag leaf (Wheat plants; [10]): 109 rel.
- Area of the flag leaf (Wheat plants; [11]): 29.38 cm^2
- Area of the leaf F-1 (Wheat plants; [11]): 28.42 cm^2
- Length of the flag leaf (Wheat plants; [11]): 24.49 cm
- Length of the leaf F-1 (Wheat plants; [11]): 27.68 cm
- Width of the flag leaf (Wheat plants; [11]): 1.40 cm
- Width of the leaf F-1 (Wheat plants; [11]): 1.27 cm
- Area [rel.] of the flag leaf (Wheat plants; [11]): 105 rel.
- Area [rel.] of the leaf F-1 (Wheat plants; [11]): 103 rel.
- Area of the flag leaf (Wheat plants; [12]): 35.37 cm^2
- Length of the flag leaf (Wheat plants; [12]): 24.49 cm
- Width of the flag leaf (Wheat plants; [12]): 1.76 cm
- Area [rel.] of the flag leaf (Wheat plants; [12]): 109 rel.
- Area of the flag leaf (Wheat plants; [13]): 31.28 cm^2
- Area of the leaf F-1 (Wheat plants; [13]): 30.07 cm^2
- Length of the flag leaf (Wheat plants; [13]): 27.10 cm
- Length of the leaf F-1 (Wheat plants; [13]): 29.77 cm
- Width of the flag leaf (Wheat plants; [13]): 1.51 cm
- Width of the leaf F-1 (Wheat plants; [13]): 1.30 cm
- Area [rel.] of the flag leaf (Wheat plants; [13]): 112 rel.
- Area [rel.] of the leaf F-1 (Wheat plants; [13]): 109 rel.
- Area of the flag leaf (Wheat plants; [14]): 37.41 cm^2
- Length of the flag leaf (Wheat plants; [14]): 25.83 cm
- Width of the flag leaf (Wheat plants; [14]): 1.73 cm
- Area [rel.] of the flag leaf (Wheat plants; [14]): 115 rel.
- Area of the flag leaf (Wheat plants; [15]): 29.04 cm^2
- Area of the leaf F-1 (Wheat plants; [15]): 28.37 cm^2
- Length of the flag leaf (Wheat plants; [15]): 25.81 cm
- Length of the leaf F-1 (Wheat plants; [15]): 28.27 cm
- Width of the flag leaf (Wheat plants; [15]): 1.40 cm
- Width of the leaf F-1 (Wheat plants; [15]): 1.19 cm
- Area [rel.] of the flag leaf (Wheat plants; [15]): 104 rel.
- Area [rel.] of the leaf F-1 (Wheat plants; [15]): 103 rel.
- Area of the flag leaf (Wheat plants; [16]): 34.86 cm^2
- Length of the flag leaf (Wheat plants; [16]): 24.21 cm
- Width of the flag leaf (Wheat plants; [16]): 1.72 cm
- Area [rel.] of the flag leaf (Wheat plants; [16]): 108 rel.
- Area of the flag leaf (Wheat plants; [17]): 32.44 cm^2
- Area of the leaf F-1 (Wheat plants; [17]): 30.28 cm^2
- Length of the flag leaf (Wheat plants; [17]): 26.57 cm
- Length of the leaf F-1 (Wheat plants; [17]): 29.38 cm
- Width of the flag leaf (Wheat plants; [17]): 1.52 cm
- Width of the leaf F-1 (Wheat plants; [17]): 1.20 cm
- Area [rel.] of the flag leaf (Wheat plants; [17]): 116 rel.
- Area [rel.] of the leaf F-1 (Wheat plants; [17]): 110 rel.
- Area of the flag leaf (Wheat plants; [18]): 39.44 cm^2
- Length of the flag leaf (Wheat plants; [18]): 26.83 cm
- Width of the flag leaf (Wheat plants; [18]): 1.77 cm
- Area [rel.] of the flag leaf (Wheat plants; [18]): 122 rel.
- Area of the flag leaf (Wheat plants; [19]): 32.37 cm^2
- Area of the leaf F-1 (Wheat plants; [19]): 30.55 cm^2
- Length of the flag leaf (Wheat plants; [19]): 26.58 cm
- Length of the leaf F-1 (Wheat plants; [19]): 31.10 cm
- Width of the flag leaf (Wheat plants; [19]): 1.47 cm
- Width of the leaf F-1 (Wheat plants; [19]): 1.26 cm
- Area [rel.] of the flag leaf (Wheat plants; [19]): 116 rel.
- Area [rel.] of the leaf F-1 (Wheat plants; [19]): 111 rel.
- Area of the flag leaf (Wheat plants; [20]): 37.91 cm^2
- Length of the flag leaf (Wheat plants; [20]): 23.78 cm
- Width of the flag leaf (Wheat plants; [20]): 2.02 cm
- Area [rel.] of the flag leaf (Wheat plants; [20]): 117 rel.

Compound: OC(Cc1ccccc1Cl)(Cn1nc[nH]c1=S)C1(Cl)CC1 (stereo not shown) [Prothioconazole]
- green leaf area of the flag leaf (wheat variety Ritmo; [2]): 98.8 % leaf area
- green leaf area of the second-from-top leaf (F-1) (wheat variety Ritmo; [2]): 97.8 % leaf area
- green leaf area of the third-from-top leaf (F-2) (wheat variety Ritmo; [2]): 96.1 % leaf area
- green leaf area of the flag leaf (wheat variety Ritmo; [3]): 98.2 % leaf area
- green leaf area of the second-from-top leaf (F-1) (wheat variety Ritmo; [3]): 97.8 % leaf area
- green leaf area of the third-from-top leaf (F-2) (wheat variety Ritmo; [3]): 95.9 % leaf area
- green leaf area of the flag leaf (wheat variety Ritmo; [4]): 98.1 % leaf area
- green leaf area of the second-from-top leaf (F-1) (wheat variety Ritmo; [4]): 96.8 % leaf area
- green leaf area of the third-from-top leaf (F-2) (wheat variety Ritmo; [4]): 94.9 % leaf area
- green leaf area of the flag leaf (wheat variety Ritmo; [5]): 94.0 % leaf area
- green leaf area of the second-from-top leaf (F-1) (wheat variety Ritmo; [5]): 91.2 % leaf area
- green leaf area of the third-from-top leaf (F-2) (wheat variety Ritmo; [5]): 83.7 % leaf area
- green leaf area of the flag leaf (wheat variety Ritmo; [6]): 58.8 % leaf area
- green leaf area of the second-from-top leaf (F-1) (wheat variety Ritmo; [6]): 44.3 % leaf area
- green leaf area of the third-from-top leaf (F-2) (wheat variety Ritmo; [6]): 25.3 % leaf area
- green leaf area of the flag leaf (wheat variety Ritmo; [7]): 13.8 % leaf area
- green leaf area of the second-from-top leaf (F-1) (wheat variety Ritmo; [7]): 4.2 % leaf area
- green leaf area of the third-from-top leaf (F-2) (wheat variety Ritmo; [7]): 0 % leaf area
- green leaf area of the second-from-top leaf (F-1) (wheat variety Ritmo; [8]): 0 % leaf area
- Photosynthesis (gas exchange activity of wheat ears) [1]: −1.86 a CO2 per ear
- Respiration (gas exchange activity of wheat ears) [1]: 2.12 ab CO2 per ear
